From patent US20090192101A1, “CANCER-SPECIFIC PROMOTERS” (priority 2006, published 2009)

Key:
[1] = tested on: normal and other cancer cell lines; test: Transient luciferase assay of promoter activity (electroporation, 24 hrs); type: cell-based, human; settings: 2 μg vector
Method: (§1) Cells (1×10^6) were transfected with 2 μg pGl3-FASN-luciferase vector, as well as 0.2 μg pRL-TK as internal standards by electroporation. The luciferase activity was measured after 24 hrs.
(§2) In FIG. 2, the promoter activities of tight junction protein Claudin 4 in human normal and cancer cells is shown. Cells (1×10^6) were transfected with 2 μg pGl3-claudin 4 luciferase vector, as well as 0.2 μg pRL-TK as internal standards by electroporation. The luciferase activity was measured after 24 hrs.
(§3) Cells (1×10^6) were transfected with 2 μg VISA-claudin 4 or VISA-fatty acid synthase promoter vector, as well as 0.2 μg pRL-TK as internal standards by electroporation. The luciferase activity was measured after 24 hrs.
(§4) 1×10^6 cells were transfected with 2 μg pGl3-FASN-luciferase vector, as well as 0.2 μg pRL-TK as internal standards by electroporation. The luciferase activity was measured after 24 hrs. […]
(§5) Expression of claudin 4 promoter was ascertained in breast cancer cell lines, normal cell lines, and other cancer cell lines by transient luciferase assay. […] The luciferase activity was measured after 24 hrs. […]
(§6) 1×10^6 cells were transfected with 2 μg pGL3-VISA-Claudin4-Luc or pGL3-VISA-FASN-Luc plasmid, as well as 0.2 μg pRL-TK as internal standards by electroporation. The luciferase activities were measured 24 hrs after transient transfection. […]

breast cancer cell lines = test: as above; type: cell-based, human; settings: breast cancer cell lines such as T47D, MDA-MB-435, 2 μg vector
Method: as §1, §2, §3, §4, §5, §6

[2] = tested on: human normal and cancer cells; test: Transient luciferase assay, promoter activity compared to CMV promoter; type: cell-based; settings: electroporation, 24 hrs
Method: The activities of claudin 4 and fatty acid synthase promoters were compared to CMV promoter. […] 1×10^6 cells were transfected with 2 μg pGl3-claudin 4 luciferase vector, as well as 0.2 μg pRL-TK as internal standards by electroporation. The luciferase activity was measured after 24 hrs. The activities of claudin 4 and fatty acid synthase promoters were much weaker than that of CMV promoter, and were about 0.5% and 5% of CMV expression activity, respectively.

FASN promoter: fatty acid synthase promoter driving luciferase in pGl3 vector
promoter expression (luciferase) in normal and other cancer cell lines [1]: low
promoter activity (luciferase) in breast cancer cell lines (breast cancer cell lines): highly expressed
promoter activity as % of CMV expression activity [2]: ~5%
